In patent US20110045101A1, “FUNGICIDAL SUBSTITUTED AZOLES” (E.I. Du Pont De Nemours and Company, priority 2009, published 2011):
Marks after values point to notes of the source that are not given here.

Key:
Type in all cases: in vivo
Details in all cases: 100 = 100% disease control
Botrytis cinerea = assay: Test C: tomato Botrytis on tomato seedlings, sprayed the day before inoculation, visual disease rating
In short: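 Compounds were dissolved in acetone (3% of final volume), then suspended in 50/50 acetone/purified water containing 250 ppm polyhydric alcohol ester surfactant. Suspensions were sprayed to run-off on tomato seedlings at 200 ppm, equivalent to 500 g/ha, or at 40 ppm where marked.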

Alternaria solani = assay: Test D: tomato early blight, sprayed the day before inoculation, visual disease rating
In short: (§1)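 Compounds were dissolved in acetone (3% of final volume), then suspended in 50/50 acetone/purified water with 250 ppm Trem® 014 surfactant. Suspensions at 200 ppm (some at 40 ppm) were sprayed to run-off, 200 ppm being equivalent to 500 g/ha.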

Septoria nodorum = assay: Test F: wheat glume blotch on wheat seedlings, sprayed the day before inoculation, visual disease rating
In short: as §1

Septoria tritici = assay: Test G: wheat leaf blotch on wheat seedlings, sprayed the day before inoculation, visual disease rating
In short: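 Wheat seedlings were sprayed with compound suspensions, 200 ppm unless starred (40 ppm). After next-day spore inoculation, plants spent 48 h saturated at 24° C, then 19 days at 20° C, when disease was rated visually.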

[1] = tested on: Puccinia recondita f. sp. tritici; assay: Test I: wheat leaf rust on wheat seedlings, sprayed the day before inoculation, visual disease rating
In short: as §1

[2] = tested on: Erysiphe graminis f. sp. tritici; assay: Test J: wheat powdery mildew on wheat seedlings, sprayed the day before inoculation, visual disease rating
In short: as §1

[3] = 200 ppm, 0 = no control relative to controls

Row | SMILES | Test C disease control rating (Botrytis cinerea; [3]) | Test D disease control rating (Alternaria solani; [3]) | Test F disease control rating (Septoria nodorum; [3]) | Test G disease control rating (Septoria tritici; [3]) | Test I disease control rating [1, 3] | Test J disease control rating [2, 3] | Test C disease control rating (Botrytis cinerea; 40 ppm (marked *)) | Test D disease control rating (Alternaria solani; 40 ppm (marked *)) | Test F disease control rating (Septoria nodorum; 40 ppm (marked *)) | Test G disease control rating (Septoria tritici; 40 ppm (marked *)) | Test I disease control rating ([1]; 40 ppm (marked *)) | Test J disease control rating ([2]; 40 ppm (marked *))
1 | CN(C)c1ncn(Cc2ccc(Cl)cc2)c1-c1c(F)cccc1F [compound 99] | 0% | 0% | 0% | 25% | 91% | 0% | – | – | – | – | – | –
2 | Fc1ccc(Cl)c(F)c1-c1c(Cl)nc(Br)n1-c1ccc(Cl)cc1 [compound 100] | 97% | 93% | 99% | 97% | 98% | 99% | – | – | – | – | – | –
3 | Fc1cccc(F)c1-c1c(Cl)nc(Br)n1Cc1cccc(Cl)c1 [compound 101] | 88% | 0% | 0% | 97% | 100% | 99% | – | – | – | – | – | –
4 | Fc1cc(Cn2c(Br)nc(Cl)c2-c2c(F)cccc2F)ccc1Cl [compound 102] | 98% | 0% | 55% | 97% | 99% | 99% | – | – | – | – | – | –
5 | Fc1cccc(F)c1-c1c(Cl)nc(Br)n1Cc1ccc(Cl)cc1 [compound 103] | 79% | 92% | 90% | 98% | 100% | 99% | – | – | – | – | – | –
6 | Cc1ccc(F)c(-c2c(Cl)nc(Br)n2-c2ccc(Cl)cc2)c1F [compound 105] | 98% | 99% | 94% | 94% | 99% | 100% | – | – | – | – | – | –
7 | COc1ccc(-c2c(Cl)ncn2-c2ccc(Cl)cc2)c(F)c1 [compound 106] | 100% | 99% | 64% | 93% | 99% | 95% | – | – | – | – | – | –
8 | Cc1ccc(F)c(-c2c(Cl)nc(C)n2-c2ccc(Cl)cc2)c1F [compound 107] | 96% | 100% | 100% | 96% | 100% | 100% | – | – | – | – | – | –
9 | CCc1nc(Cl)c(-c2c(F)cccc2F)n1-c1ccc(Cl)cc1 [compound 108] | – | – | – | – | – | – | 100* % | 100* % | 0* % | 74* % | 98* % | 99* %
10 | COc1ccc(-c2c(Cl)nc(Br)n2-c2ccc(Cl)cc2)c(F)c1 [compound 110] | 94% | 99% | 100% | 95% | 97% | 96% | – | – | – | – | – | –
11 | COc1ccc(F)c(-c2c(Cl)ncn2-c2ccc(Cl)cc2)c1F [compound 112] | 99% | 100% | 89% | 98% | 99% | 99% | – | – | – | – | – | –
12 | COc1ccc(-c2c(Cl)nc(C)n2-c2ccc(Cl)cc2)c(F)c1 [compound 113] | 98% | 99% | 97% | 95% | 97% | 97% | – | – | – | – | – | –
13 | COc1ccc(-c2c(Cl)nc(C)n2-c2ccc(Cl)cc2)c(F)c1C [compound 114] | 93% | 0% | 0% | 95% | 41% | 72% | – | – | – | – | – | –
14 | CC(C)c1nc(Cl)c(-c2c(F)cccc2F)n1-c1ccc(Cl)cc1 [compound 116] | – | – | – | – | – | – | 0* % | 0* % | 0* % | 0* % | 0* % | 0* %
15 | COc1ccc(F)c(-c2c(Cl)nc(Br)n2-c2ccc(Cl)cc2)c1F [compound 117] | 96% | 100% | 99% | 97% | 99% | 100% | – | – | – | – | – | –
16 | Cc1nc(Cl)c(-c2c(F)cccc2F)n1Cc1ccccc1 [compound 118] | 99% | 100% | 60% | 94% | 99% | 100% | – | – | – | – | – | –
17 | Cc1nc(Cl)c(-c2c(F)cc(O)cc2F)n1-c1ccc(Cl)cc1 [compound 119] | 96% | 80% | 40% | 91% | 80% | 0% | – | – | – | – | – | –
18 | Cc1nc(Cl)c(-c2c(F)cccc2F)n1Cc1ccc(Cl)c(F)c1 [compound 120] | 98% | 0% | 0% | 96% | 90% | 92% | – | – | – | – | – | –
19 | Fc1ccc(-n2cnc(Cl)c2-c2c(F)ccc(F)c2F)cc1 [compound 121] | 99% | 100% | 0% | 85% | 89% | 97% | – | – | – | – | – | –
20 | COc1ccc(F)c(-c2c(Cl)nc(C)n2-c2ccc(Cl)cc2)c1F [compound 122] | 98% | 100% | 100% | 96% | 100% | 100% | – | – | – | – | – | –
21 | Cc1ccc(-n2cnc(Cl)c2-c2c(F)ccc(F)c2F)cc1 [compound 123] | 99% | 99% | 0% | 48% | 90% | 94% | – | – | – | – | – | –
22 | Fc1cc(-n2cnc(Cl)c2-c2c(F)ccc(F)c2F)ccc1Cl [compound 124] | 98% | 97% | 0% | 90% | 95% | 98% | – | – | – | – | – | –
23 | Cc1nc(Cl)c(-c2c(F)cccc2F)n1Cc1cccc(Cl)c1 [compound 126] | 97% | 99% | 69% | 96% | 99% | 99% | – | – | – | – | – | –
24 | Cc1nc(Cl)c(-c2c(F)ccc(Cl)c2F)n1-c1ccc(Cl)cc1 [compound 127] | 99% | 100% | 98% | 95% | 100% | 100% | – | – | – | – | – | –
